Results reported in the NIST ThermoML archive (doi:10.1016/j.jct.2017.03.033).

Assay: molar heat capacity at constant pressure
Settings: Flow calorimetry

CC(C)C [2-methylpropane]
Settings | molar heat capacity at constant pressure [J/K/mol]
353.87 K, 10990 kPa, Liquid | 150.71
353.87 K, 11500 kPa, Liquid | 150.42
353.88 K, 2000 kPa, Liquid | 166.17
353.88 K, 3510 kPa, Liquid | 160.94
353.88 K, 7510 kPa, Liquid | 153.15
353.88 K, 12010 kPa, Liquid | 149.9
353.89 K, 5510 kPa, Liquid | 157.05
353.89 K, 6510 kPa, Liquid | 155.42
353.9 K, 1540 kPa, Liquid | 168.38
353.9 K, 4000 kPa, Liquid | 160.01
353.9 K, 7990 kPa, Liquid | 152.75
363.86 K, 2090 kPa, Liquid | 174.19
363.91 K, 2520 kPa, Liquid | 171.93
363.92 K, 5030 kPa, Liquid | 162.8
363.92 K, 6510 kPa, Liquid | 159.43
363.92 K, 8020 kPa, Liquid | 156.81
363.93 K, 3000 kPa, Liquid | 170.01
363.93 K, 7000 kPa, Liquid | 158.5
363.94 K, 5510 kPa, Liquid | 161.75
363.94 K, 8500 kPa, Liquid | 156.12
363.95 K, 11990 kPa, Liquid | 152.05
363.96 K, 4040 kPa, Liquid | 165.71
363.96 K, 6000 kPa, Liquid | 160.88
363.96 K, 7510 kPa, Liquid | 157.92
363.96 K, 9970 kPa, Liquid | 153.91
363.96 K, 10510 kPa, Liquid | 153.09
363.97 K, 3510 kPa, Liquid | 167.22
363.97 K, 8990 kPa, Liquid | 155.13
363.97 K, 11000 kPa, Liquid | 152.75
363.98 K, 4500 kPa, Liquid | 164.66
363.98 K, 9510 kPa, Liquid | 154.2
364 K, 11540 kPa, Liquid | 152.34
373.85 K, 2530 kPa, Liquid | 186.46
373.85 K, 7050 kPa, Liquid | 164.54
373.87 K, 7520 kPa, Liquid | 163.73
373.89 K, 7980 kPa, Liquid | 162.86
373.89 K, 9480 kPa, Liquid | 160.48
373.9 K, 5520 kPa, Liquid | 169.02
373.9 K, 6000 kPa, Liquid | 167.45
373.9 K, 10000 kPa, Liquid | 159.78
373.91 K, 9020 kPa, Liquid | 161.23
373.92 K, 3010 kPa, Liquid | 182.39
373.92 K, 4500 kPa, Liquid | 172.97
373.92 K, 8520 kPa, Liquid | 162.1
373.93 K, 4020 kPa, Liquid | 175.3
373.94 K, 6520 kPa, Liquid | 166.64
373.95 K, 5020 kPa, Liquid | 171.34
373.95 K, 11010 kPa, Liquid | 158.15
373.95 K, 11470 kPa, Liquid | 157.45
373.95 K, 11990 kPa, Liquid | 157.1
373.97 K, 3530 kPa, Liquid | 179.02
373.98 K, 10490 kPa, Liquid | 158.44
383.2 K, 2550 kPa, Liquid | 209.82
383.21 K, 6010 kPa, Liquid | 173.96
383.26 K, 6520 kPa, Liquid | 171.81
383.3 K, 3960 kPa, Liquid | 188.32
383.32 K, 4990 kPa, Liquid | 179.89
383.34 K, 4500 kPa, Liquid | 183.72
383.35 K, 3010 kPa, Liquid | 201.04
383.42 K, 3490 kPa, Liquid | 193.84
383.44 K, 5490 kPa, Liquid | 177.21
383.92 K, 6990 kPa, Liquid | 170.65
383.92 K, 9990 kPa, Liquid | 163.61
383.93 K, 10490 kPa, Liquid | 161.7
383.93 K, 12090 kPa, Liquid | 159.14
383.94 K, 7980 kPa, Liquid | 168.55
383.94 K, 9460 kPa, Liquid | 164.25
383.94 K, 11010 kPa, Liquid | 160.71
383.94 K, 11570 kPa, Liquid | 159.37
383.95 K, 9030 kPa, Liquid | 164.95
383.96 K, 7520 kPa, Liquid | 169.54
383.97 K, 8470 kPa, Liquid | 166.75
393.93 K, 4520 kPa, Liquid | 197.56
393.95 K, 3560 kPa, Liquid | 222.96
393.96 K, 3090 kPa, Liquid | 248.47
393.99 K, 4980 kPa, Liquid | 192.79
393.99 K, 7000 kPa, Liquid | 177.62
393.99 K, 9000 kPa, Liquid | 170.47
394 K, 8010 kPa, Liquid | 174.6
394 K, 9500 kPa, Liquid | 169.6
394.01 K, 7500 kPa, Liquid | 176.28
394.02 K, 6000 kPa, Liquid | 183.49
394.02 K, 12020 kPa, Liquid | 165.3
394.03 K, 8510 kPa, Liquid | 173.38
394.03 K, 11010 kPa, Liquid | 166.75
394.04 K, 4060 kPa, Liquid | 208.37
394.05 K, 6500 kPa, Liquid | 180.59
394.05 K, 9990 kPa, Liquid | 168.03
394.05 K, 11510 kPa, Liquid | 165.53
394.06 K, 5490 kPa, Liquid | 187.33
394.09 K, 10520 kPa, Liquid | 167.28
403.41 K, 4080 kPa, Liquid | 248.65
403.41 K, 4510 kPa, Liquid | 227.2
403.43 K, 5070 kPa, Liquid | 209.76
403.44 K, 5520 kPa, Liquid | 201.92
403.49 K, 9990 kPa, Liquid | 173.15
403.5 K, 8500 kPa, Liquid | 177.97
403.51 K, 6500 kPa, Liquid | 192.5
403.51 K, 8000 kPa, Liquid | 180.88
403.52 K, 6010 kPa, Liquid | 195.93
403.53 K, 6990 kPa, Liquid | 189.01
403.53 K, 8990 kPa, Liquid | 175.94
403.53 K, 10960 kPa, Liquid | 172.8
403.53 K, 12000 kPa, Liquid | 170.65
403.54 K, 10490 kPa, Liquid | 172.91
403.55 K, 9510 kPa, Liquid | 174.54
403.55 K, 11490 kPa, Liquid | 172.16
403.58 K, 7550 kPa, Liquid | 184.77
413.26 K, 4120 kPa, Fluid (supercritical or subcritical phases) | 593.02
413.46 K, 4510 kPa, Fluid (supercritical or subcritical phases) | 315.55
413.47 K, 5490 kPa, Fluid (supercritical or subcritical phases) | 230.16
413.48 K, 6060 kPa, Fluid (supercritical or subcritical phases) | 211.86
413.5 K, 4980 kPa, Fluid (supercritical or subcritical phases) | 256.44
413.51 K, 6500 kPa, Fluid (supercritical or subcritical phases) | 205.29
413.51 K, 7000 kPa, Fluid (supercritical or subcritical phases) | 197.5
413.52 K, 11000 kPa, Fluid (supercritical or subcritical phases) | 171.93
413.53 K, 7980 kPa, Fluid (supercritical or subcritical phases) | 188.9
413.53 K, 8490 kPa, Fluid (supercritical or subcritical phases) | 186.05
413.53 K, 10480 kPa, Fluid (supercritical or subcritical phases) | 174.77
413.54 K, 7520 kPa, Fluid (supercritical or subcritical phases) | 191.28
413.54 K, 10010 kPa, Fluid (supercritical or subcritical phases) | 176.92
413.54 K, 11510 kPa, Fluid (supercritical or subcritical phases) | 170.01
413.54 K, 11940 kPa, Fluid (supercritical or subcritical phases) | 169.43
413.55 K, 8990 kPa, Fluid (supercritical or subcritical phases) | 180.93
413.56 K, 9510 kPa, Fluid (supercritical or subcritical phases) | 178.9
